Data taken from patent US4285858A, “Vasopressin analogs” (Mt. Sinai School of Medicine of the City University of N.Y., priority 1979, dated 1981).
Where a SMILES comes first, the peptide text is derived from it. Bridges are numbered along the chain shown (N, C = ends). [ ]: non-standard residue; d: D form. Mpa = O=C(O)CCS

Columns and labels:
F-VIII and PA = settings: mammals; literature; cited from earlier work
anesthetized rats [1] = test: Pressor effect by intravenous injection into anesthetized rats; type: in vivo, rat; settings: for Pressor Potencies (peak): rats, mean
Procedure: (§1) The vasopressin analogs of this invention were tested for antidiuretic and pressor effects by intravenous injection into anesthetized rats using techniques described in Cort, J. H., Schuck, O., Stribrna, J. Skopkova, J., Jost. K., Mulder, J. L., Kidney Internat. 8:292,1975. The increase in Factor VIII after administration were analyzed in male canine citrated plasma. The Factor VIII were estimated by both the classical clotting assay (F-VIII(C)) and by radioimmunoassay (F-VIII(RIA)), both described in Prowse, C. V., Sas, G., Gader, A. M. A., Cort, J. H., Cash, J. D., Brit. H. Haematol. 41:437, 1979. The vasopressin analogs are suitable for administration to mammals by intravenous or subcutaneous injection containing 100 μg to 1 mg peptide/ml. The intravenous or subcutaneous doses would be in the range of 0.02 to 1.0 μg/kg. The intranasal dose range would be ten times the former dose.
(§2) The vasopressin analogs were injected intravenously into normal male dogs anesthetized with sodium pentothal. Blood was withdrawn from each dog after 30, 60 and 120 minutes and analyzed for F-VIII. Rats were also rested for antidiuretic and pressor activity due to the vasopressin analogs of this invention.

Factor VIII [2] = test: Factor VIII classical clotting assay (F-VIII(C)) on blood of dogs after intravenous injection; type: in vivo; settings: dog, i.v., pre-injection blood = 100%; for F-VIII 30' (c): 30 minutes; for F-VIII 60' (c): 60 minutes; for F-VIII 120' (c): 120 minutes
Procedure: (§3) K., Mulder, J. L., Kidney Internat. 8:292,1975. The increase in Factor VIII after administration were analyzed in male canine citrated plasma. The Factor VIII were estimated by both the classical clotting assay (F-VIII(C)) and by radioimmunoassay (F-VIII(RIA)), both described in […]., Cort, J. H., Cash, J. D., Brit. H. Haematol. 41:437, 1979. […] The intravenous or subcutaneous doses would be in the range of 0.02 to 1.0 μg/kg. The intranasal dose range would be ten times the former dose. […] The compounds from Examples 4-8 were tested by intravenously injecting the compounds in physiological saline into a normal dog which was anesthetized using sodium pentothal. Blood samples were withdrawn from each dog after 30, 60 and 120 minutes and tested. […] The F-VIII factor level was also determined by radioimmunoassay(RIA). The results of these tests are reported in Table I. Desmopressin (10 μg/kg) was used as a reference injection peptide.

F-VIII = settings: cited from earlier work
Factor VIII [3] = test: Factor VIII radioimmunoassay (F-VIII(RIA)) on blood of dogs after intravenous injection; type: in vivo; settings: dog, i.v.; for F-VIII 30' (RIA): 30 minutes; for F-VIII 60' (RIA): 60 minutes; for F-VIII 120' (RIA): 120 minutes
Procedure: as §3

anesthetized rats [4] = test: Antidiuretic effect by intravenous injection into anesthetized rats; type: in vivo, rat; settings: for Antidiuretic Potencies (peak): rats, mean
Procedure: as §1, §2

[5] = 5 μg/kg, hemophiliac dog plasma = 0%

Row | Molecule | effect on blood levels of F-VIII and PA (F-VIII and PA) | Pressor Potencies (peak) (anesthetized rats [1]) [IU/mg] | F-VIII 30' (c) (Factor VIII [2]; 10 μg/kg) [%] | F-VIII 60' (c) (Factor VIII [2]; 10 μg/kg) [%] | F-VIII 120' (c) (Factor VIII [2]; 10 μg/kg) [%] | F-VIII 30' (RIA) (Factor VIII [3]; 10 μg/kg) [%] | F-VIII 60' (RIA) (Factor VIII [3]; 10 μg/kg) [%] | F-VIII 120' (RIA) (Factor VIII [3]; 10 μg/kg) [%] | Antidiuretic Potencies (peak) (anesthetized rats [4]) [IU/mg] | further results
1 | 1-desamino-6-monocarba-[8 -D-Arg]-vasopressin [dCDAVP] | highly potent and prolonged effects on F-VIII and PA release |  |  |  |  |  |  |  |  | 
2 | NC(=O)CC[C@@H]1NC(=O)[C@H](Cc2ccccc2)NC(=O)[C@H](Cc2ccc(O)cc2)NC(=O)CCSSC[C@@H](C(=O)N2CCC[C@H]2C(=O)N[C@H](CCCN=C(N)N)C(=O)NCC(N)=O)NC(=O)[C@H](CC(N)=O)NC1=O [Desmopressin, 1-desamino-[8-D-ARG]-vasopressin, reference compound] | highly potent and prolonged effects on F-VIII and PA release | 0.15 | 220 | 250 | 210 | 126 | 134 | 164 | 1100 | pressor activity (anesthetized rats [1]): less than 0.2 IU/mg; effect on low F-VIII levels in patients (F-VIII; hemophilia A and B, von Willebrand's disease, literature): increases low levels of F-VIII toward normal; antidiuretic side effect in clinical use (F-VIII; human, in vivo): undesired water retention by the patients; antidiuretic activity (anesthetized rats [4]): more than 1000 IU/mg
3 | C[C@@H](NC(=O)[C@H](CCCNC(=N)N)NC(=O)[C@@H]1CCCN1C(=O)[C@@H]1CSSCCC(=O)N[C@@H](Cc2ccc(O)cc2)C(=O)N[C@@H](Cc2ccccc2)C(=O)N[C@@H](CCC(N)=O)C(=O)N[C@@H](CC(N)=O)C(=O)N1)C(N)=O [Example 4, 1-Desamino-[9-D-Ala-NH]-arginine-vasopressin] ([Mpa]YFQNCPR[dA]-NH2; disulfide 1-6) |  | 0.15 | 230 | 250 | 240 | 124 | 132 | 163 | 1.8 | F-VIII 30' (c) (Factor VIII [2]; [5]): 120%; F-VIII 60' (c) (Factor VIII [2]; 5 μg/kg): 160%; F-VIII 120' (c) (Factor VIII [2]; 5 μg/kg): 170%; F-VIII 30' (RIA) (Factor VIII [3]; 5 μg/kg): 115%; F-VIII 60' (RIA) (Factor VIII [3]; 5 μg/kg): 125%; F-VIII 120' (RIA) (Factor VIII [3]; 5 μg/kg): 130%
4 | C[C@@H](NC(=O)[C@H](CCCNC(=N)N)NC(=O)[C@@H]1CCCN1C(=O)[C@@H]1CSSC[C@H](N)C(=O)N[C@@H](Cc2ccc(O)cc2)C(=O)N[C@@H](Cc2ccccc2)C(=O)N[C@@H](CCC(N)=O)C(=O)N[C@@H](CC(N)=O)C(=O)N1)C(N)=O [Example 5, ([9-D-Ala-NH2]-arginine-vasopressin] |  | 0.10 | 225 | 128 | 115 | 115 | 110 | 115 | 1.2 | F-VIII 30' (c) (Factor VIII [2]; [5]): 115%; F-VIII 60' (c) (Factor VIII [2]; 5 μg/kg): 120%; F-VIII 120' (c) (Factor VIII [2]; 5 μg/kg): 105%; F-VIII 30' (RIA) (Factor VIII [3]; 5 μg/kg): 110%; F-VIII 60' (RIA) (Factor VIII [3]; 5 μg/kg): 107%; F-VIII 120' (RIA) (Factor VIII [3]; 5 μg/kg): 98%
5 | C[C@H](NC(=O)[C@@H](CCCNC(=N)N)NC(=O)[C@@H]1CCCN1C(=O)[C@@H]1CSSCCC(=O)N[C@@H](Cc2ccc(O)cc2)C(=O)N[C@@H](Cc2ccccc2)C(=O)N[C@@H](CCC(N)=O)C(=O)N[C@@H](CC(N)=O)C(=O)N1)C(N)=O [Example 8, (1-desamino-[8-D-Arg, 9-Ala-NH2]arginine)-vasopressin] ([Mpa]YFQNCP[dR]A-NH2; disulfide 1-6) |  | 0.09 | 155 | 150 | 140 | 120 | 145 | 155 | 2.23 | 
6 | CNCC(O)c1ccc(O)c(O)c1 (stereo not drawn) [adrenaline] | can increase the blood levels of both PA and F-VIII |  |  |  |  |  |  |  |  | 
7 | CC[C@H](C)[C@@H]1NC(=O)[C@H](Cc2ccc(O)cc2)NC(=O)[C@@H](N)CSSC[C@@H](C(=O)N2CCC[C@H]2C(=O)N[C@@H](CC(C)C)C(=O)NCC(N)=O)NC(=O)[C@H](CC(N)=O)NC(=O)[C@H](CCC(N)=O)NC1=O [oxytocin] | no effect on increasing F-VIII and PA in blood |  |  |  |  |  |  |  |  | 
8 | NC(=O)CC[C@@H]1NC(=O)[C@H](Cc2ccccc2)NC(=O)[C@H](Cc2ccc(O)cc2)NC(=O)[C@@H](N)CSSC[C@@H](C(=O)N2CCC[C@H]2C(=O)N[C@@H](CCCN=C(N)N)C(=O)NCC(N)=O)NC(=O)[C@H](CC(N)=O)NC1=O [vasopressin] | can increase the blood levels of both PA and F-VIII |  |  |  |  |  |  |  |  | 
9 | (1-desamino-6-monocarba[9-D-Ala-NH2 ]-arginine)-vasopressin [Example 7] |  | 0.18 | 240 | 255 | 266 | 125 | 165 | 180 | 1.9 | F-VIII 30' (c) (Factor VIII [2]; [5]): 145%; F-VIII 60' (c) (Factor VIII [2]; 5 μg/kg): 190%; F-VIII 120' (c) (Factor VIII [2]; 5 μg/kg): 210%; F-VIII 30' (RIA) (Factor VIII [3]; 5 μg/kg): 140%; F-VIII 60' (RIA) (Factor VIII [3]; 5 μg/kg): 150%; F-VIII 120' (RIA) (Factor VIII [3]; 5 μg/kg): 155%
10 | angiotensin II (DRVYIHPF; Angiotensin-2; UniProt P01019 25-32, looked up) [other pressor substance] | no effect on increasing F-VIII and PA in blood |  |  |  |  |  |  |  |  | 
11 | arginine-vasotocin | far less active |  |  |  |  |  |  |  |  | 
